# In US5518735A, “Meta-substituted phenylalanine derivatives” (priority 1990, dated 1996):
# pKi: −log10 of the molar value. Structures can show the parent of a compound that is named as a salt.
# Key:
# thrombin = thrombin (Bos taurus, UniProt P00735); assay: Inhibition of thrombin (dissociation constant Ki); assay type: biochemical
# factor Xa = factor Xa (Bos taurus, UniProt P00743); assay: Inhibition of factor Xa (dissociation constant Ki); assay type: biochemical; conditions: Tables 19-25; read-out: Ki, Factor Xa
# trypsin = biological target: T1, trypsin (Bos taurus, UniProt P00760); assay: Inhibition of trypsin (Ki); assay type: biochemical; conditions: Table 26
# T1 sequence (P00760 24-246): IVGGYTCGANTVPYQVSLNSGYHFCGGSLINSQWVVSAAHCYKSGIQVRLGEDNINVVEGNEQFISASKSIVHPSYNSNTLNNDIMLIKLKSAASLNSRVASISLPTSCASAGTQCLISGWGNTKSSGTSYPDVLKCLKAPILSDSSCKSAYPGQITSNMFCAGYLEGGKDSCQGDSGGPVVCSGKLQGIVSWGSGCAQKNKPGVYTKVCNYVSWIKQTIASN
# plasmin = biological target: T2, plasmin (Homo sapiens, UniProt P00747); assay: Inhibition of plasmin (Ki); assay type: biochemical; conditions: Table 26
# T2 construct: trypsin and the related enzymes thrombin, plasmin, factor Xa, tPA
# factor XIIa = biological target: T3, factor XIIa (Homo sapiens, UniProt P00748); assay: Inhibition of factor XIIa (Ki); assay type: biochemical; conditions: Table 26
# T3 construct: glandular kallikrein, factor XIIa and plasma kallikrein
# T3 sequence (P00748 373-615 limits assumed): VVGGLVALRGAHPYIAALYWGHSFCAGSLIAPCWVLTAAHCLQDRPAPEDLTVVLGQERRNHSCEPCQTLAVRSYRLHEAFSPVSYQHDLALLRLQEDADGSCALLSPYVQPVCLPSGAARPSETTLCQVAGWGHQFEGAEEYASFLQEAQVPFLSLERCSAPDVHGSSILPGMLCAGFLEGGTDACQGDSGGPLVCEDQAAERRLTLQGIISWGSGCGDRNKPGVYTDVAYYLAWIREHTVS
# tPA = tPA (Homo sapiens, UniProt P00750); assay: Inhibition of tPA (Ki); assay type: biochemical; conditions: Table 26
# glandular kallikrein = glandular kallikrein (Sus scrofa, UniProt P00752); assay: Inhibition of glandular kallikrein (Ki); assay type: biochemical; conditions: Table 26; read-out: Ki, Gland. Kallikrein
# plasma kallikrein = biological target: T4, plasma kallikrein (Homo sapiens, UniProt P03952); assay: Inhibition of plasma kallikrein (Ki); assay type: biochemical; conditions: Table 26
# T4 construct: glandular kallikrein, factor XIIa and plasma kallikrein
# [1] = test system: thrombin-induced plasma coagulation; assay: Anticoagulant effect in vivo, thrombin-induced plasma coagulation of plasma of treated rats; design: species or system rat; conditions: after i.v., s.c. and p.o. administration; FIG. 5
# Description: After i.v., s.c. and p.o. administration of the compounds to be tested, the anticoagulant effect was determined in plasma of experimental animals (illustrated for compound 123 in FIG. 5).
# in vivo = conditions: mouse
# [2] = Plasma concentration in rats after oral administration (HPLC); conditions: rat, plasma, po, 100 mg/kg
# [3] = Plasma concentration in rats after intravenous administration (HPLC)
# [4] = Plasma concentration in rats after subcutaneous administration (HPLC); conditions: rat, plasma, sc, 5 mg/kg
# T4 sequence (P03952 391-638 limits assumed, species assumed): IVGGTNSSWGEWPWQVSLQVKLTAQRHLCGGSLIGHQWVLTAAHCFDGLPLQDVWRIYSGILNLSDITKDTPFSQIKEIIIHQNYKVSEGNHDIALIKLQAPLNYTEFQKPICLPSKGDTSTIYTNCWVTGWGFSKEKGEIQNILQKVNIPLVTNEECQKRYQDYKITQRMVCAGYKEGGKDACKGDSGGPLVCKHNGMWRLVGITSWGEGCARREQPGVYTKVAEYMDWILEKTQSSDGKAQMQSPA
# T4 sequence (P03952 20-390 partner limits assumed, species assumed): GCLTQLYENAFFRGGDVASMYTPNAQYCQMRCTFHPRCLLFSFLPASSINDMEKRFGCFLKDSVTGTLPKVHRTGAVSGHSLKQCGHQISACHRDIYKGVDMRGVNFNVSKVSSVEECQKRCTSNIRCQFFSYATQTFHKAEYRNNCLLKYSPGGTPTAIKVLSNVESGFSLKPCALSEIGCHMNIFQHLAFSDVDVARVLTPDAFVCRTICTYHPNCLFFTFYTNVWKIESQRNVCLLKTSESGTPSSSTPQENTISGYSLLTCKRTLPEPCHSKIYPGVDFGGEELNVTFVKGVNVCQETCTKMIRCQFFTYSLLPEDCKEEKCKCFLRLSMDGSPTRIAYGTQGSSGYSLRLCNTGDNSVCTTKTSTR
# factor Xa, sequence (P00743 234-492 limits assumed): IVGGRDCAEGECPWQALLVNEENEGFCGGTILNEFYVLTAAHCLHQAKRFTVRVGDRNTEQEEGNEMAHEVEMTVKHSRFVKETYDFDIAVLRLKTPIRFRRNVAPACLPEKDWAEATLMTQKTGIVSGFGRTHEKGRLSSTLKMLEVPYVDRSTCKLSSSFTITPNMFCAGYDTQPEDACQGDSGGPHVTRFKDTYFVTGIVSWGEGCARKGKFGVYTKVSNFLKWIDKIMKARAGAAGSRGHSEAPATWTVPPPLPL
# factor Xa, sequence (P00743 41-180 partner limits assumed): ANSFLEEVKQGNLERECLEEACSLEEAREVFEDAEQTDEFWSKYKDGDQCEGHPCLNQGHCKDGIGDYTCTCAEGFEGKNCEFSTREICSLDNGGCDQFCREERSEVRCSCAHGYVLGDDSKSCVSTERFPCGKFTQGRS
# T2 sequence (P00747 581-810 limits assumed): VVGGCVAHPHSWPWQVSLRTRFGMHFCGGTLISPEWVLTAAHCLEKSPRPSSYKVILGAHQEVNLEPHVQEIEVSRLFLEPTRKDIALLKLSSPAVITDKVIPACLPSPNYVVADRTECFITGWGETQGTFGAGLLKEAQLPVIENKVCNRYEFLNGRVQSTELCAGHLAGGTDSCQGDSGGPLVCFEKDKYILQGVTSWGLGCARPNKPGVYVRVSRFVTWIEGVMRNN
# T2 sequence (P00747 97-580 partner limits assumed): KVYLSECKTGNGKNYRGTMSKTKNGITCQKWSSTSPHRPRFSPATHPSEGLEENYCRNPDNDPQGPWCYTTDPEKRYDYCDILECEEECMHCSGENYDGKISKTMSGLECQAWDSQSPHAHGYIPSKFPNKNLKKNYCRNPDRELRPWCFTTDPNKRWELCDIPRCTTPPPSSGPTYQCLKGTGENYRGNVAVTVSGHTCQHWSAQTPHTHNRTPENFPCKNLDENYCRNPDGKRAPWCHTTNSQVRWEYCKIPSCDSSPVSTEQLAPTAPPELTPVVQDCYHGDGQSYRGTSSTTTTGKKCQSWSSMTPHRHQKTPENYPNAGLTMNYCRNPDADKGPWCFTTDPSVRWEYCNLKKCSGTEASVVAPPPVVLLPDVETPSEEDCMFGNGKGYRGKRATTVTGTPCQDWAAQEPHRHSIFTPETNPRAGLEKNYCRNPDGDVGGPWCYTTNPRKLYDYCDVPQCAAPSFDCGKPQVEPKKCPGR
# glandular kallikrein, sequence (P00752 8-246): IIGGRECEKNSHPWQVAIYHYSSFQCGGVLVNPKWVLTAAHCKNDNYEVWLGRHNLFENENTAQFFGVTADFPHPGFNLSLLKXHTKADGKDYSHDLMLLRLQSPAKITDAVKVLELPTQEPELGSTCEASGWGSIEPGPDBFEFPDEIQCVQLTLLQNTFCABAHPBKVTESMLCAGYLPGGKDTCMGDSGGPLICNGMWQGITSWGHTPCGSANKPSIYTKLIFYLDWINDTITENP
# tPA, sequence (P00750 36-562): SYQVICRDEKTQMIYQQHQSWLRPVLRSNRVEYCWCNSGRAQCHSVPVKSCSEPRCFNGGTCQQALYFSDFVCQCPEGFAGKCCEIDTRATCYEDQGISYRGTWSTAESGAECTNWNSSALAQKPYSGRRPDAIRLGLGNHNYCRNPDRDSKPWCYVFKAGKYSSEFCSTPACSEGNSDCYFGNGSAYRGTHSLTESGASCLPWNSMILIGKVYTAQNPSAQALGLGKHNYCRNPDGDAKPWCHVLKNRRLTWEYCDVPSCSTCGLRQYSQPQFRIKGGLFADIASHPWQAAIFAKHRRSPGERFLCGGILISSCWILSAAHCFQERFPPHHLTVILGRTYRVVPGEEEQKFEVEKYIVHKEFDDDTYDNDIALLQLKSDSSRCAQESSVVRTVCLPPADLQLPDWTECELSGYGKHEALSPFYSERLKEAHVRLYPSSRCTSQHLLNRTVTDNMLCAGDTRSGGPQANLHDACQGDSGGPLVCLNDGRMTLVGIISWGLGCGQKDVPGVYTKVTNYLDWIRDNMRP
smiles,measurement,setting,value
"N=C(N)c1cccc(C[C@H](NS(=O)(=O)c2ccc3ccccc3c2)C(=O)N2CCC[C@@H]2C(=O)O)c1 [Compound 123, N-α-(2-Naphthylsulfonyl)-3-amidino-(L)-phenylalanyl-(D)-proline hydrochloride]",pKi,thrombin,6.17
same,pKi,factor Xa,3.66
same,pKi,trypsin,6.02
same,pKi,plasmin,4.02
same,pKi,factor XIIa,< 3.00
same,pKi,tPA,3.52
same,pKi,glandular kallikrein,< 3.00
same,pKi,plasma kallikrein,4.23
same,anticoagulant / antithrombin effect in plasma of experimental animals,[1],the antithrombin effect can be detected in the clotting test
same,LD50 at 168 h,in vivo; iv,188 mg/kg
same,LD50 at 168 h,in vivo; po,> 3000 mg/kg
same,concentration at 0.25 h,[2],230 ng/mL
same,concentration at 0.5 h,[2],170 ng/mL
same,concentration at 1 h,[2],100 ng/mL
same,concentration at 1.5 h,[2],133 ng/mL
same,concentration at 3 h,[2],96 ng/mL
same,concentration at 4 h,[2],67 ng/mL
same,pharmacokinetic properties,"[3]; in words, compared with NAPAP",improved pharmacokinetic properties
same,Concentration in plasma,"[3]; rat, i.v. 1 mg/kg, 240 min",0 ng/mL
same,concentration at 2 min,"[3]; rat, plasma, iv, 1 mg/kg",2330 ng/mL
same,concentration at 5 min,"[3]; rat, plasma, iv, 1 mg/kg",1180 ng/mL
same,concentration at 10 min,"[3]; rat, plasma, iv, 1 mg/kg",660 ng/mL
same,concentration at 0.25 h,"[3]; rat, plasma, iv, 1 mg/kg",440 ng/mL
same,concentration at 0.5 h,"[3]; rat, plasma, iv, 1 mg/kg",260 ng/mL
same,concentration at 0.75 h,"[3]; rat, plasma, iv, 1 mg/kg",185 ng/mL
same,concentration at 1 h,"[3]; rat, plasma, iv, 1 mg/kg",160 ng/mL
same,concentration at 1.5 h,"[3]; rat, plasma, iv, 1 mg/kg",68 ng/mL
same,concentration at 2 h,"[3]; rat, plasma, iv, 1 mg/kg",32 ng/mL
same,concentration at 3 h,"[3]; rat, plasma, iv, 1 mg/kg",22 ng/mL
same,concentration at 0.25 h,[4],792 ng/mL
same,concentration at 0.5 h,[4],1340 ng/mL
same,concentration at 0.75 h,[4],1380 ng/mL
same,concentration at 1.5 h,[4],1780 ng/mL
same,concentration at 2 h,[4],1600 ng/mL
same,concentration at 3 h,[4],1140 ng/mL
same,concentration at 4 h,[4],927 ng/mL
